Data: US7589123B2, “Chemical compounds” (Phytopharm PLC, priority 2006, dated 2009)

Legend:
guinea pig ileum = test: Effect of test compound alone on guinea pig ileum contraction (Assay 3)
Protocol: Duncan Hartley derived male guinea pigs (325±25 g) were suppressed by CO2 overexposure, the abdominal cavity was exposed and ileal segments were removed. Small strips of ileum were suspended in organ baths containing Krebs solution (composition in g/l: NaCl 6.89, KCl 0.35, CaCl2 0.277, KH2PO4 0.163, MgSO4.7H2O 0.296, NaHCO3 2.1 glucose 1.8). The solution was kept at 32° C. and gassed with O2 (95%)-CO2 (5%) to maintain pH at 7.4. Mechanical activity was recorded by means of isotonic transducers. A resting tension of 1 g was applied to muscle strips before being equilibrated for 1 h, prior to test compound addition. Each preparation was washed twice at 15 min intervals during the equilibration.
Histamine (1.7 μM; approximately EC60-70) or 5-hydroxytryptamine (5-HT, 2.6 μM; approximately EC60-70) was applied for 5 min and the amplitude of the contraction recorded. The histamine or 5-HT was then washed out until the ileal tissue returned to baseline. Five min after returning to baseline test compound (3 and 30 μM) was applied and the amplitude of the contraction (if any) was recorded. In the continuous presence of test compound, histamine or 5-HT was re-applied and the inhibition of the response was recorded.

[1] = system: histamine-induced contractions in guinea pig ileum; test: Inhibition of histamine-induced contractions in guinea pig ileum (Assay 3); conditions: histamine 1.7 μM
Procedure, shortened: (§1)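 Isolated male guinea pig ileum strips in Krebs at 32° C, pH 7.4, 1 g resting tension, isotonic recording. Contraction to test compound (3 and 30 μM) alone recorded, then inhibition of responses to histamine 1.7 μM or 5-HT 2.6 μM (~EC60-70, 5 min) measured in its continued presence.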

[2] = system: 5-HT-induced contractions in guinea pig ileum; test: Inhibition of 5-HT-induced contractions in guinea pig ileum (Assay 3); conditions: 5-HT 2.6 μM
Procedure, shortened: as §1

[3] = system: α-smooth muscle actin (α-SMA) mRNA; test: Anti-remodelling activity in human lung fibroblasts (HFL1): TGFβ-induced α-SMA mRNA (Assay 4); type: cell-based; conditions: HFL1 cells, TGFβ 10 ng/ml, 24 h
Procedure, shortened: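 Real-time RT-PCR of α-SMA mRNA, GAPDH as reference, measured after 24 h exposure of low-serum-primed HFL1 cells to 10 ng/ml TGFβ with test compounds (3 and 30 μM) in 10% FBS medium. Readout is inhibition of TGFβ-driven α-SMA mRNA overexpression.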

[4] = system: IL-1α-induced PGE2 release; test: IL-1α-induced PGE2 release in human diploid lung fibroblasts (WI-38) (Assay 5); type: cell-based; conditions: WI-38 cells, IL-1α 1 nM, overnight
Procedure, shortened: (§2)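 WI-38 fibroblasts stimulated overnight at 37 °C with 1 nM IL-1α plus test compound at 3 and 30 μM in MEM with 10% FBS, pH 7.3; released PGE2 in supernatant quantified by radioimmunoassay as percent inhibition. Viability then checked by Alamar Blue, 4 h at 37 °C, fluorescence ex 530/em 590 nm.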

WI-38 cells = test: Viability of WI-38 cells, Alamar Blue (Assay 5); type: cell-based, human
Procedure, shortened: as §2

5-lipoxygenase = biological target: T1, 5-lipoxygenase (Homo sapiens, UniProt P09917); test: 5-lipoxygenase activity (LTB4) in human peripheral blood mononuclear leukocytes (Assay 6); type: cell-based; conditions: human PBMLs, A23187 30 μM
T1 construct: endogenous in cells; host or cells: human peripheral blood mononuclear leukocytes (PBMLs)
T1 sequence (P09917 1-674): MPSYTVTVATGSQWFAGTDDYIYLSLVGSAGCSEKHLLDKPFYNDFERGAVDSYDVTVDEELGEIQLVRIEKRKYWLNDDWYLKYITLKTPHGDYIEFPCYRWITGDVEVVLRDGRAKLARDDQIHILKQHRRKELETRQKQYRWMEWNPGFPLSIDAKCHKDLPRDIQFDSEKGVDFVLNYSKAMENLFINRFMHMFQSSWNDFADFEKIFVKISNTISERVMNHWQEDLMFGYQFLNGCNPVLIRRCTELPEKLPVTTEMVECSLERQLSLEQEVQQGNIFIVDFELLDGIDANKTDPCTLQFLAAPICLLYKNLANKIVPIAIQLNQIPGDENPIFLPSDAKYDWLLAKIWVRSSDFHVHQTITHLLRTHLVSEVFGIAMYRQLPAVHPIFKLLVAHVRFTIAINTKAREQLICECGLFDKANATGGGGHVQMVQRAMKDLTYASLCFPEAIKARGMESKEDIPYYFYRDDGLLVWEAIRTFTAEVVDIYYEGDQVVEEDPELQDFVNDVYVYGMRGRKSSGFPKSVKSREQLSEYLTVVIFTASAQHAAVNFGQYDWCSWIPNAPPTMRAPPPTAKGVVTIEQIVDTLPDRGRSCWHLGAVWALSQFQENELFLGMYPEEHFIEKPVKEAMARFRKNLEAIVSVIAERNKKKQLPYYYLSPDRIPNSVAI
Procedure, shortened: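 Human PBMLs (5×10^6 cells, Ficoll-isolated) stimulated with 30 μM A23187 plus compound at 3 or 30 μM or 0.1% DMSO in HBSS pH 7.4, 37° C., 15 min. After NaOH neutralisation and centrifugation, supernatant LTB4 measured by enzyme immunoassay.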

TRPV1 receptor [5] = biological target: T2, TRPV1 receptor (Rattus norvegicus, UniProt O35433); test: TRPV1 modulation in DRG neurones: CGRP release in absence and presence of capsaicin (Assay 2); type: cell-based; set-up: The culture used for this experiment contained sensory neurones, Schwann cells and fibroblasts; endogenous in cells; host or cells: primary rat DRG sensory neurone culture (with Schwann cells and fibroblasts); conditions: for Effect of test compounds on capsaicin (1 μM)-induced CGRP release (%): −ve: inhibition, +ve: potentiation of capsaicin response; for CGRP release (% of capsaicin (1 μM) response): rat DRG sensory neurones, 20 min
TRPV1 receptor [6] = biological target: T2, TRPV1 receptor; test: TRPV1 receptor modulation in the rat vas deferens, EFS-induced contraction (Assay 1); conditions: electrical field stimulation
Protocol: Wistar derived male rats (275±25 g) were suppressed by CO2 overexposure. The vas deferens was removed, placed in Krebs solution, pH 7.4 (composition in g/l: NaCl 6.89, KCl 0.35, CaCl2 0.277, KH2PO4 0.163, MgSO4.7H2O 0.296, NaHCO3 2.1 glucose 1.8) and excess fat and connective tissue removed. The portion of the vas deferens closest to the prostate was cut in half and each half was placed under 1 g tension in a 10 ml bath containing Krebs solution at 32° C. The tissue was contracted by electrical field stimulation (EFS; 60% of maximum stimulation, 0.015 Hz, 0.5 ms in duration) and contractile responses were measured.

T2 sequence (O35433 whole entry): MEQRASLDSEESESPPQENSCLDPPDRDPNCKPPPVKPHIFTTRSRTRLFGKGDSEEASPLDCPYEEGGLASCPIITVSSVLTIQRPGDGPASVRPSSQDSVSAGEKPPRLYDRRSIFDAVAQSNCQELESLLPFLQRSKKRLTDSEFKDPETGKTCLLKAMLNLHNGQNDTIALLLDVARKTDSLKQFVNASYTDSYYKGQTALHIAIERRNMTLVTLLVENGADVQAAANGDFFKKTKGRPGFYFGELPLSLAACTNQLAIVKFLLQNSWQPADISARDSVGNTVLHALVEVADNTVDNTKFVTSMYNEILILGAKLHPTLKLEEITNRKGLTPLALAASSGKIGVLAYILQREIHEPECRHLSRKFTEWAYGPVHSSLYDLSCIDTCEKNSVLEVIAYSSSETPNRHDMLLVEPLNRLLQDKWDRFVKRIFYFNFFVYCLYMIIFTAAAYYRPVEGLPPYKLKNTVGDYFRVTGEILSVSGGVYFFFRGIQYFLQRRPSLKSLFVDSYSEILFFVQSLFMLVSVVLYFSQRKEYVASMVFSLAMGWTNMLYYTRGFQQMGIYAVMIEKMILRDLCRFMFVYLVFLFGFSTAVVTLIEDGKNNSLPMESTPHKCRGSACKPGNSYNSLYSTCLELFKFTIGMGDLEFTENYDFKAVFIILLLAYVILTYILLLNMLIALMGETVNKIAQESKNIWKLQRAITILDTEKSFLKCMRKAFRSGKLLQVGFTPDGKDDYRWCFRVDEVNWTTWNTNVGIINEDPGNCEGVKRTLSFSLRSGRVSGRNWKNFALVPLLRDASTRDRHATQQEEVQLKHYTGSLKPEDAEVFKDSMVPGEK

| Structure (SMILES) | Contraction of guinea pig ileum relative to 5-HT-induced contraction (guinea pig ileum; 3 μM) | Contraction of guinea pig ileum relative to histamine-induced contraction (guinea pig ileum; 3 μM) | Contraction of guinea pig ileum relative to 5-HT-induced contraction (guinea pig ileum; 30 μM) | Contraction of guinea pig ileum relative to histamine-induced contraction (guinea pig ileum; 30 μM) | Inhibition of histamine-induced contraction (%) ([1]; 3 μM) | Inhibition of histamine-induced contraction (%) ([1]; 30 μM) | Inhibition of 5-HT-induced contraction (%) ([2]; 3 μM) | Inhibition of 5-HT-induced contraction (%) ([2]; 30 μM) | Inhibition of α-SMA mRNA synthesis (%) ([3]; 3 μM) | Inhibition of α-SMA mRNA synthesis (%) ([3]; 30 μM) | Inhibition of IL-1α-induced PGE2 release (%) ([4]; 3 μM) | Inhibition of IL-1α-induced PGE2 release (%) ([4]; 30 μM) | Decrease in cell viability (%) (WI-38 cells; 3 μM) | Decrease in cell viability (%) (WI-38 cells; 30 μM) | Inhibition of 5-LO (%) (5-lipoxygenase; 3 μM) | Inhibition of 5-LO (%) (5-lipoxygenase; 30 μM) | Effect of test compounds on capsaicin (1 μM)-induced CGRP release (%) (TRPV1 receptor [5]; 3 μM with capsaicin 1 μM) | Effect of test compounds on capsaicin (1 μM)-induced CGRP release (%) (TRPV1 receptor [5]; 30 μM with capsaicin 1 μM) | CGRP release (% of capsaicin (1 μM) response) (TRPV1 receptor [5]; test compound alone 3 μM) [%] | CGRP release (% of capsaicin (1 μM) response) (TRPV1 receptor [5]; test compound alone 30 μM) [%] | other results |
| --- | --- | --- | --- | --- | --- | --- | --- | --- | --- | --- | --- | --- | --- | --- | --- | --- | --- | --- | --- | --- | --- |
| COc1cc(CCC(=O)CC(=O)c2ccc(Cl)c(Cl)c2)ccc1O [Compound 23, 1-(3,4-Dihlorophenyl)-5-(4-hydroxy-3-methoxyphenyl)pentane-1,3-dione] | 0 | 0 | 0 | 0 | 8 | 37 | 11 | 25 | 13 | 79 | 84 | 100 | 6 | 16 | 63 | 98 | −2 | 47 | 84 | 242 |  |
| CCC(=O)CC(=O)CCc1ccc(O)c(OC)c1 [3-gingerdione, reference compound] | 0 | 0 | 0 | 0 | 5 | 14 | 0 | 5 | 13 | 24 | 61 | 99 | 4 | 5 | −5 | 73 | −37 | −43 | 17 | 18 |  |
| COc1cc(CCC(=O)CC(=O)C(C)C)ccc1O [Compound 1] | 0 | 0 | 0 | 0 | 0 | 11 | 0 | 20 | 12 | 34 | 68 | 101 | 3 | −10 | 26 | 63 | −36 | −24 | 26 | 41 | Inhibition of EFS response relative to capsaicin (TRPV1 receptor [6]): 27% |
| COc1cc(CCC(=O)CC(=O)c2ccc(Cl)cc2Cl)ccc1O [Compound 24, 1-(2,4-Dihlorophenyl)-5-(4-hydroxy-3-methoxyphenyl)pentane-1,3-dione] | 0 | 0 | 0 | 0 | 12 | 59 | 5 | 98 | 8 | 80 | 93 | 100 | 7 | 26 | 45 | 97 | −13 | 2 | 92 | 193 |  |
